Each compound was assayed on OF1 mice (assay: Maximal electroshock test (MES Test)). Details: Mus musculus, po; 50 mg/kg, p.o., pre-treatment time −0.5 h (footnote d); read-out: %-Protection.
Format: in vivo
In short: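 Readout: fraction of five OF1 mice protected, meaning seizure duration 3 s or less, after a 50 Hz, 18 mA, 0.2 s temporal-electrode shock. Dosing was oral, usually 50 mg/kg, one hour beforehand; ED50 values were derived and post-shock blood taken for exposure.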

SMILES	responders at 50 mg/kg
CC(=O)N(n1c(=O)[nH]c2cc(C(F)(F)F)c([C@H]3CCCO3)cc2c1=O)S(C)(=O)=O [Example 10.01, N-Acetyl-N—((R)-2,4-dioxo-6-tetrahydro-furan-2-yl-7-trifluoromethyl-1,4-dihydro-2H-quinazolin-3-yl)-methanesulfonamide]	40%
CCC(=O)N(n1c(=O)[nH]c2cc(C(F)(F)F)c([C@H]3CCCO3)cc2c1=O)S(C)(=O)=O [Example 10.02, N—((R)-2,4-Dioxo-6-tetrahydro-furan-2-yl-7-trifluoromethyl-1,4-dihydro-2H-quinazolin-3-yl)-N-propionyl-methanesulfonamide]	60%
CCCC(=O)N(n1c(=O)[nH]c2cc(C(F)(F)F)c([C@H]3CCCO3)cc2c1=O)S(C)(=O)=O [Example 10.03]	60%

Same assay, conditions: Mus musculus, po; 50 mg/kg, p.o., pre-treatment time −1 h; read-out: %-Protection

SMILES	responders at 50 mg/kg
CCCC(=O)N(n1c(=O)[nH]c2cc(C(F)(F)F)c(-n3cccc3)cc2c1=O)S(C)(=O)=O [Example 8.02, N-Butyryl-N-(2,4-dioxo-6-pyrrol-1-yl-7-trifluoromethyl-1,4-dihydro-2H-quinazolin-3-yl)-methanesulfonamide]	20%
CC(=O)OCC(=O)N(n1c(=O)[nH]c2cc(C(F)(F)F)c(-n3cccc3)cc2c1=O)S(C)(=O)=O [Example 8.03, Acetic acid 2-[(2,4-dioxo-6-pyrrol-1-yl-7-trifluoromethyl-1,4-dihydro-2H-quinazolin-3-yl)-methanesulfonyl-amino]-2-oxo-ethyl ester]	40%
COC(=O)N(n1c(=O)[nH]c2cc(C(F)(F)F)c(-n3cccc3)cc2c1=O)S(C)(=O)=O [Example 8.04, (2,4-Dioxo-6-pyrrol-1-yl-7-trifluoromethyl-1,4-dihydro-2H-quinazolin-3-yl)-methanesulfonyl-carbamic acid methyl ester]	20%
CCOC(=O)N(n1c(=O)[nH]c2cc(C(F)(F)F)c(-n3cccc3)cc2c1=O)S(C)(=O)=O [Example 8.05, (2,4-Dioxo-6-pyrrol-1-yl-7-trifluoromethyl-1,4-dihydro-2H-quinazolin-3-yl)-methanesulfonyl-carbamic acid ethyl ester]	60%
CCCCC(=O)N(n1c(=O)[nH]c2cc(C(F)(F)F)c(-n3cnnc3)cc2c1=O)S(C)(=O)=O [Example 9.03, N-(2,4-Dioxo-6-[1,2,4]triazol-4-yl-7-trifluoromethyl-1,4-dihydro-2H-quinazolin-3-yl)-N-pentanoyl-methanesulfonamide]	20%
CC(=O)N(n1c(=O)[nH]c2cc(C(F)(F)F)c([C@H]3CCCO3)cc2c1=O)S(C)(=O)=O [Example 10.01, N-Acetyl-N—((R)-2,4-dioxo-6-tetrahydro-furan-2-yl-7-trifluoromethyl-1,4-dihydro-2H-quinazolin-3-yl)-methanesulfonamide]	80%
CCC(=O)N(n1c(=O)[nH]c2cc(C(F)(F)F)c([C@H]3CCCO3)cc2c1=O)S(C)(=O)=O [Example 10.02, N—((R)-2,4-Dioxo-6-tetrahydro-furan-2-yl-7-trifluoromethyl-1,4-dihydro-2H-quinazolin-3-yl)-N-propionyl-methanesulfonamide]	60%
CCCC(=O)N(n1c(=O)[nH]c2cc(C(F)(F)F)c([C@H]3CCCO3)cc2c1=O)S(C)(=O)=O [Example 10.03]	100%
COC(=O)N(n1c(=O)[nH]c2cc(C(F)(F)F)c([C@H]3CCCO3)cc2c1=O)S(C)(=O)=O [Example 10.04, Methanesulfonyl-N—((R)-2,4-dioxo-6-tetrahydro-furan-2-yl-7-trifluoromethyl-1,4-dihydro-2H-quinazolin-3-yl)-carbamic acid methyl ester]	20%
CCOC(=O)N(n1c(=O)[nH]c2cc(C(F)(F)F)c([C@H]3CCCO3)cc2c1=O)S(C)(=O)=O [Example 10.05, Methanesulfonyl-N—((R)-2,4-dioxo-6-tetrahydro-furan-2-yl-7-trifluoromethyl-1,4-dihydro-2H-quinazolin-3-yl)-carbamic acid ethyl ester]	40%
CCCCOC(=O)N(n1c(=O)[nH]c2cc(C(F)(F)F)c([C@H]3CCCO3)cc2c1=O)S(C)(=O)=O [Example 10.06, Methanesulfonyl-N—((R)-2,4-dioxo-6-tetrahydro-furan-2-yl-7-trifluoromethyl-1,4-dihydro-2H-quinazolin-3-yl)-carbamic acid butyl ester]	40%
COCCOC(=O)N(n1c(=O)[nH]c2cc(C(F)(F)F)c([C@H]3CCCO3)cc2c1=O)S(C)(=O)=O [Example 10.07, Methanesulfonyl-N—((R)-2,4-dioxo-6-tetrahydro-furan-2-yl-7-trifluoromethyl-1,4-dihydro-2H-quinazolin-3-yl)-carbamic acid 2-methoxy-ethyl ester]	60%
CC(C)COC(=O)N(n1c(=O)[nH]c2cc(C(F)(F)F)c([C@H]3CCCO3)cc2c1=O)S(C)(=O)=O [Example 10.08, Methanesulfonyl-N—((R)-2,4-dioxo-6-tetrahydro-furan-2-yl-7-trifluoromethyl-1,4-dihydro-2H-quinazolin-3-yl)-carbamic acid isobutyl ester]	20%
CCCCCC(=O)N(n1c(=O)[nH]c2cc(C(F)(F)F)c([C@H]3CCCO3)cc2c1=O)S(C)(=O)=O [Example 10.09, N—((R)-2,4-Dioxo-6-tetrahydro-furan-2-yl-7-trifluoromethyl-1,4-dihydro-2H-quinazolin-3-yl)-N-hexanoyl-methanesulfonamide]	60%
CCOC(=O)CCC(=O)N(n1c(=O)[nH]c2cc(C(F)(F)F)c([C@H]3CCCO3)cc2c1=O)S(C)(=O)=O [Example 10.10]	20%
CCCCC(=O)N(n1c(=O)[nH]c2cc(C(F)(F)F)c([C@H]3CCCO3)cc2c1=O)S(C)(=O)=O [Example 10.11, N—((R)-2,4-Dioxo-6-tetrahydro-furan-2-yl-7-trifluoromethyl-1,4-dihydro-2H-quinazolin-3-yl)-N-pentanoyl-methanesulfonamide]	20%
CCC(OC)c1cc2c(=O)n(N(C(=O)OCCOC)S(C)(=O)=O)c(=O)[nH]c2cc1C(F)(F)F (centres unmarked) [Example 11.01, Methanesulfonyl-[6-(1-methoxy-propyl)-2,4-dioxo-7-trifluoromethyl-1,4-dihydro-2H-quinazolin-3-yl]-carbamic acid 2-methoxy-ethyl ester]	60%
CCC(=O)N(n1c(=O)[nH]c2cc(C(F)(F)F)c(C(CC)OC)cc2c1=O)S(C)(=O)=O (centres unmarked) [Example 11.02, N-[6-(1-Methoxy-propyl)-2,4-dioxo-7-trifluoromethyl-1,4-dihydro-2H-quinazolin-3-yl]-N-propionyl-methanesulfonamide]	100%
CCOC(=O)N(n1c(=O)[nH]c2cc(C(F)(F)F)c(C(CC)OC)cc2c1=O)S(C)(=O)=O (centres unmarked) [Example 11.03, Methanesulfonyl-[6-(1-methoxy-propyl)-2,4-dioxo-7-trifluoromethyl-1,4-dihydro-2H-quinazolin-3-yl]-carbamic acid ethyl ester]	80%
CCCOC(=O)N(n1c(=O)[nH]c2cc(C(F)(F)F)c(C(CC)OC)cc2c1=O)S(C)(=O)=O (centres unmarked) [Example 11.04, Methanesulfonyl-[6-(1-methoxy-propyl)-2,4-dioxo-7-trifluoromethyl-1,4-dihydro-2H-quinazolin-3-yl]-carbamic acid propyl ester]	20%
CCCCCC(=O)N(n1c(=O)[nH]c2cc(C(F)(F)F)c(C(CC)OC)cc2c1=O)S(C)(=O)=O (centres unmarked) [Example 11.05, N-Hexanoyl-N-[6-(1-Methoxy-propyl)-2,4-dioxo-7-trifluoromethyl-1,4-dihydro-2H-quinazolin-3-yl]-methanesulfonamide]	80%
CCC(OC)c1cc2c(=O)n(N(C(=O)C(C)C)S(C)(=O)=O)c(=O)[nH]c2cc1C(F)(F)F (centres unmarked) [Example 11.06, N-Isobutyryl-N-[6-(1-methoxy-propyl)-2,4-dioxo-7-trifluoromethyl-1,4-dihydro-2H-quinazolin-3-yl]-methanesulfonamide]	100%
CCCC(=O)N(n1c(=O)[nH]c2cc(C(F)(F)F)c(C(CC)OC)cc2c1=O)S(C)(=O)=O (centres unmarked) [Example 11.07, N-Butyryl-N-[6-(1-methoxy-propyl)-2,4-dioxo-7-trifluoromethyl-1,4-dihydro-2H-quinazolin-3-yl]-methanesulfonamide]	100%
CCC(OC)c1cc2c(=O)n(N(C(C)=O)S(C)(=O)=O)c(=O)[nH]c2cc1C(F)(F)F (centres unmarked) [Example 11.08, N-Acetyl-N-[6-(1-methoxy-propyl)-2,4-dioxo-7-trifluoromethyl-1,4-dihydro-2H-quinazolin-3-yl]-methanesulfonamide]	80%
CCC(OC)c1cc2c(=O)n(N(C(=O)OC)S(C)(=O)=O)c(=O)[nH]c2cc1C(F)(F)F (centres unmarked) [Example 11.09, Methanesulfonyl-[6-(1-methoxy-propyl)-2,4-dioxo-7-trifluoromethyl-1,4-dihydro-2H-quinazolin-3-yl]-carbamic acid methyl ester]	80%
CCC(OC)c1cc2c(=O)n(N(C(=O)OCC(C)C)S(C)(=O)=O)c(=O)[nH]c2cc1C(F)(F)F (centres unmarked) [Example 11.10, Methanesulfonyl-[6-(1-methoxy-propyl)-2,4-dioxo-7-trifluoromethyl-1,4-dihydro-2H-quinazolin-3-yl]-carbamic acid isobutyl ester]	100%

Same assay, conditions: Mus musculus, po; 50 mg/kg, p.o., pre-treatment time −2 h (footnote a); read-out: %-Protection

SMILES	responders at 50 mg/kg
CC(C)CC(=O)N(n1c(=O)[nH]c2cc(C(F)(F)F)c(-n3cnnc3)cc2c1=O)S(C)(=O)=O [Example 9.01, N-(2,4-Dioxo-6-[1,2,4]triazol-4-yl-7-trifluoromethyl-1,4-dihydro-2H-quinazolin-3-yl)-N-(3-methyl-butyryl)-methanesulfonamide]	40%
CCCCCC(=O)N(n1c(=O)[nH]c2cc(C(F)(F)F)c(-n3cnnc3)cc2c1=O)S(C)(=O)=O [Example 9.02, N-(2,4-Dioxo-6-[1,2,4]triazol-4-yl-7-trifluoromethyl-1,4-dihydro-2H-quinazolin-3-yl)-N-hexanoyl-methanesulfonamide]	20%
CCCC(=O)N(n1c(=O)[nH]c2cc(C(F)(F)F)c(-n3cnnc3)cc2c1=O)S(C)(=O)=O [Example 9.04, N-Butyryl-N-(2,4-dioxo-6-[1,2,4]triazol-4-yl-7-trifluoromethyl-1,4-dihydro-2H-quinazolin-3-yl)-methanesulfonamide]	20%
